Data from US9018371B2, “Adenosine derivatives, method for the synthesis thereof, and the pharmaceutical compositions for the prevention and treatment of the inflammatory diseases containing the same as an active ingredient” (FM Therapeutics Co., Ltd., priority 2007, dated 2015).

How the values were obtained:
[1] = tested on: TPA-induced inflammation of the mouse ear; experiment: Anti-inflammatory activity, TPA-induced mouse ear inflammation; format: in vivo, ICR mice; settings: TPA-treated ear; for anti-inflammatory activity relative to Examples 2 to 4, on the basis of inhibition percentage: 0.5% in acetone, ICR mice (FIG. 3); for percentage of inflammation inhibition: ICR mice, 24 hrs after TPA
Method: The adenosine derivatives of the present invention were examined for anti-inflammatory activity in the following animal test. Seven-week-old male ICR mice were treated with TPA (12-O-tetradecanoylphorbol 13-acetate, 20 μl) in the right ear. […] Hydrocortisone was used at the same concentration as a control.
6 hrs after treatment with TPA, the mice were secondarily treated with the adenosine derivatives of the present invention. 24 hrs after TPA treatment, test animals were euthanized using a cervical dislocation method. Samples were obtained from the right ear using a 6 mm diameter punch. The activity was observed by measuring the ear sample using a microbalance. Percentages of inhibition were calculated using the following Equation 1. The compositions and amounts used in these experiments are summarized in Tables 2 to 5 and the anti-inflammatory activities thereof are shown in FIGS. 2 to 5.

[2] = target: human A3 adenosine receptor (hA3 AR) (Homo sapiens (Human), UniProt P0DMS8); experiment: Binding affinity for human A3 adenosine receptor ([125I]AB-MECA, CHO cells); settings: for Ki: nM ± SEM, [125I]AB-MECA, CHO cells
[3] = target: rat A3 adenosine receptor (Rattus norvegicus (Rat), UniProt P28647); experiment: Binding affinity for rat A3 adenosine receptor expressed in CHO cells
[4] = target: human A2B adenosine receptor (Homo sapiens (Human), UniProt P29275); experiment: Agonist or antagonist activity on human A2B adenosine receptor
[5] = target: human A3 adenosine receptor (Homo sapiens (Human), UniProt P0DMS8); experiment: Antagonism of Cl-IB-MECA and cAMP inhibition in CHO cells expressing human A3 adenosine receptor; format: cell-based; settings: various concentrations
[6] = target: human A1 adenosine receptor (hA1) (Homo sapiens (Human), UniProt P30542); experiment: Binding affinity for human A1 adenosine receptor ([3H]CCPA, CHO cells); settings: nM ± SEM
[7] = target: human A2A adenosine receptor (hA2A) (Homo sapiens (Human), UniProt P29274); experiment: Binding affinity for human A2A adenosine receptor ([3H]CGS-21680, HEK 293 cell); settings: nM ± SEM
[8] = Toxicity assay in animals (abdominal administration, 24 hrs observation); settings: 20 mg/kg, 10 mg/kg and 1 mg/kg abdominally, observation for 24 hrs
[9] = 0.5% in distilled water:acetone (1:4)

Chain of human A3 adenosine receptor (hA3 AR) (P0DMS8 whole entry): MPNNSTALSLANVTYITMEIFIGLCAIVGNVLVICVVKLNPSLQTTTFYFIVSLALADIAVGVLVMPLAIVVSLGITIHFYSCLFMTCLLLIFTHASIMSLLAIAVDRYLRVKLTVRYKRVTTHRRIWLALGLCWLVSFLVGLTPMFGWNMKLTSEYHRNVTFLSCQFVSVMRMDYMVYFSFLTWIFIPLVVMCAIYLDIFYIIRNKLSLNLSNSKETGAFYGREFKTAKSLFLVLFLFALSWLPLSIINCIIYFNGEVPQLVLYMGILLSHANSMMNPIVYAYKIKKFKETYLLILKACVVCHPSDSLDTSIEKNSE
Chain of human A1 adenosine receptor (hA1) (P30542 whole entry): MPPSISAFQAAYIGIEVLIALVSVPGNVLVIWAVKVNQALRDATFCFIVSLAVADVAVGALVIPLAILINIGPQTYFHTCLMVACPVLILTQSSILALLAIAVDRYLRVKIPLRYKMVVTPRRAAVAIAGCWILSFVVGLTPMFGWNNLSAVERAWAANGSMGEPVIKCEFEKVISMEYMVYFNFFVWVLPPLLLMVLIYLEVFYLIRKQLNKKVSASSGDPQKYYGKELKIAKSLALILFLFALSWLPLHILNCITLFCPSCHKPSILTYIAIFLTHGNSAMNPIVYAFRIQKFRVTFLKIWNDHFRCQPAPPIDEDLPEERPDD
Chain of human A2A adenosine receptor (hA2A) (P29274 whole entry): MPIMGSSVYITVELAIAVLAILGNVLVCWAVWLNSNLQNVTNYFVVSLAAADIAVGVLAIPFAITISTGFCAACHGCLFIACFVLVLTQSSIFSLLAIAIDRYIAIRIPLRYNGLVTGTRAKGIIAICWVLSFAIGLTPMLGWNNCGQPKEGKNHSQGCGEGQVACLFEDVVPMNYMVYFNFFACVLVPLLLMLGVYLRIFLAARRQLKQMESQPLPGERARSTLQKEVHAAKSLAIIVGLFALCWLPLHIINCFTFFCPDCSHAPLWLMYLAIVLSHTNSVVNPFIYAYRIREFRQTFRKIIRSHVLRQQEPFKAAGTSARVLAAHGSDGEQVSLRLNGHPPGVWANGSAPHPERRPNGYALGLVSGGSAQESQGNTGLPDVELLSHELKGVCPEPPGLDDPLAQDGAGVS
Chain of human A3 adenosine receptor (P0DMS8 whole entry): as the sequence (P0DMS8 whole entry) above
Chain of rat A3 adenosine receptor (P28647 whole entry): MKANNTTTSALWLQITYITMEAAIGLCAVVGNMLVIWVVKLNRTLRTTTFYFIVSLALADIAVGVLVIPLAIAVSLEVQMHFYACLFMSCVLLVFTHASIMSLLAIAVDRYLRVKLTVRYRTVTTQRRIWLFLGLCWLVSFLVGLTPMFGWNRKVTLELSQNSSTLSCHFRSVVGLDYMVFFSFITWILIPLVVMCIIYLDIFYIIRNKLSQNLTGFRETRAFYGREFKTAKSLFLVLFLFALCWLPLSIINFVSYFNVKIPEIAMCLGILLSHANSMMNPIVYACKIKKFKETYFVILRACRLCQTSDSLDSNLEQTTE
Chain of human A2B adenosine receptor (P29275 whole entry): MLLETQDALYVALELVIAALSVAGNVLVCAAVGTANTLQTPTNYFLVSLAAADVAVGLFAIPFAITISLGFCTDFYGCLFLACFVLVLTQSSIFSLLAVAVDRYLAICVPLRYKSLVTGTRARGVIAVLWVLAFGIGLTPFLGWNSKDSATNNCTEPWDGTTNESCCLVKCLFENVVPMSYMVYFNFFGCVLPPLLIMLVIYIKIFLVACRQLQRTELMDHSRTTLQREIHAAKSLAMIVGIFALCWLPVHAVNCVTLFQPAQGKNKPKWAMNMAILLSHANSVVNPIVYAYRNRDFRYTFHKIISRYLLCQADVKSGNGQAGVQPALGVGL

melting point	Ki [2] [nM]	SMILES	other results
198.8 to 199.8 °C		OC1CS[C@@H](n2cnc3c(NCc4cccc(I)c4)ncnc32)C1O (stereo in doubt) [Example 14, (2R,3R,4S)-2-(6-(3-Iodobenzylamino)-9H-purin-9-yl)tetrahydrothiophen-3,4-diol]	
	1.5 ± 0.4	OC1CS[C@@H](n2cnc3c(NCc4cccc(Cl)c4)ncnc32)C1O (stereo in doubt) [Example 12, (2R,3R,4S)-2-(6-(3-Chlorobenzylamino)-9H-purin-9-yl)tetrahydrothiophen-3,4-diol]	Ki [6]: 860 ± 210 nM; Ki [7]: 440 ± 110 nM
183 to 184 °C	6.8 ± 3.4	OC1CS[C@@H](n2cnc3c(NCc4cccc(Br)c4)ncnc32)C1O (stereo in doubt) [Example 13, (2R,3R,4S)-2-(6-(3-bromobenzylamino)-9H-purin-9-yl)tetrahydrothiophen-3,4-diol]	Ki [6]: 790 ± 190 nM; Ki [7]: 420 ± 32 nM
	7.3 ± 0.6	OC1CS[C@@H](n2cnc3c(NCc4cccc(F)c4)ncnc32)C1O (stereo in doubt) [Example 11, (2R,3R,4S)-2-(6-(3-fluorobenzylamino)-9H-purin-9-yl)tetrahydrothiophen-3,4-diol]	Ki [6]: 1430 ± 420 nM; Ki [7]: 1260 ± 330 nM
	3.69 ± 0.25	CNc1nc(Cl)nc2c1ncn2[C@@H]1SC[C@H](O)[C@@H]1O [Example 10, 2-(2-Chloro-6-methylamino-purin-9-yl)(2R,3S,4R)-tetrahydrothiophen-3,4-diol]	
181.5 to 181.7 °C	13 ± 6.9	OC1CO[C@@H](n2cnc3c(NCc4cccc(Br)c4)nc(Cl)nc32)C1O (stereo in doubt) [Example 15, (2R,3R,4R)-2-(6-(3-Bromobenzylamino)-2-chloro-9H-purin-9-yl)tetrahydrofuran-3,4-diol]	percentage of inflammation inhibition ([1]; 0.5% in DMSO:acetone (1:9)): 59%; binding affinity for hA3 AR (in words) [2]: high binding affinity and selectivity
195.5 to 195.8 °C	42.9 ± 8.9	OC1CO[C@@H](n2cnc3c(NCc4cccc(I)c4)nc(Cl)nc32)[C@H]1O (stereo partly drawn) [Example 16, (2R,3R,4R)-2-(6-(3-iodobenzylamino)-2-chloro-9H-purin-9-yl)tetrahydrofuro-3,4-diol]	percentage of inflammation inhibition ([1]; 0.5% in DMSO:acetone (1:9)): 79%; binding affinity for hA3 AR (in words) [2]: high binding affinity and selectivity

Further lines, the compound ahead of its results:

SMILES	melting point	Ki [2] [nM]	other results
OC1CS[C@@H](n2cnc3c(NCc4cccc(F)c4)nc(Cl)nc32)C1O (stereo in doubt) [Example 1, (2R,3R,4S)-2-(2-Chloro-6-(3-fluorobenzylamino)-9H-purin-9-yl)tetrahydrothiophen-3,4-diol]	183.2 to 183.5 °C	7.4 ± 1.3	anti-inflammatory activity relative to Examples 2 to 4, on the basis of inhibition percentage [1]: four or more times that of the compounds of Examples 2 to 4
O[C@@H]1[C@H](O)CS[C@H]1n1cnc2c(NCc3cccc(I)c3)nc(Cl)nc21 [Example 4, (2R,3R,4S)-2-(2-Chloro-6-(3-iodobenzylamino)-9H-purin-9-yl)tetrahydrothiophen-3,4-diol]			Ki [3]: 3.89 ± 1.15 nM
OC1CS[C@@H](n2cnc3c(NCc4cccc(I)c4)nc(Cl)nc32)C1O (stereo in doubt) [Example 4, (2R,3R,4S)-2-(2-Chloro-6-(3-iodobenzylamino)-9H-purin-9-yl)tetrahydrothiophen-3,4-diol]			agonist or antagonist on human A2B adenosine receptor (in words) [4]: not observed as an agonist or antagonist; inhibition of the agonist effect of Cl-IB-MECA (in words) [5]: inhibited in a dose-dependent manner
O=C(O)c1cccc(CNc2nc(Cl)nc3c2ncn3[C@@H]2SCC(O)C2O)c1 (stereo in doubt) [Example 9, 3-((2-chloro-9-((2R,3R,4S)-3,4-dihydroxytetrahydrothiophen-2-yl)-9H-purine-6-ylamino)methyl)benzoic acid]	254 to 256.99 °C		
COc1ccccc1CNc1nc(Cl)nc2c1ncn2[C@@H]1SCC(O)C1O (stereo in doubt) [Example 7, (2R,3R,4S)-2-(2-chloro-6-(2-methoxybenzylamino)-9H-purin-9-yl)tetrahydrothiophen-3,4-diol]	188 °C		percentage of inflammation inhibition [1, 9]: 34%
OC1CS[C@@H](n2cnc3c(NCc4cccc5ccccc45)nc(Cl)nc32)C1O (stereo in doubt) [Example 8, (2R,3R,4S)-2-(2-Chloro-6-(naphthalen-1-ylmethylamino)-9H-purin-9-yl)tetrahydrothiophen-3,4-diol]	226.3 °C (dec.)	24.8 ± 8.1	percentage of inflammation inhibition [1, 9]: 53%
OC1CS[C@@H](n2cnc3c(NCc4cccc(Br)c4)nc(Cl)nc32)C1O (stereo in doubt) [Example 3, (2R,3R,4S)-2-(2-Chloro-6-(3-bromobenzylamino)-9H-purin-9-yl)tetrahydrothiophen-3,4-diol]	184 to 185 °C	8.99 ± 5.17	
COc1ccc(Cl)cc1CNc1nc(Cl)nc2c1ncn2[C@@H]1SCC(O)C1O (stereo in doubt) [Example 6, (2R,3R,4S)-2-(2-Chloro-6-(5-chloro-2-methoxybenzylamino)-9H-purin-9-yl)tetrahydrothiophen-3,4-diol]	188.8 to 189.8 °C	12.7 ± 3.7	Ki [7]: 4020 ± 1750 nM; anti-inflammatory activity relative to Examples 2 to 4, on the basis of inhibition percentage [1]: four or more times that of the compounds of Examples 2 to 4
OC1CS[C@@H](n2cnc3c(NCc4ccccc4Cl)nc(Cl)nc32)C1O (stereo in doubt) [Example 5, (2R,3R,4S)-2-(2-Chloro-6-(2-chlorobenzylamino)-9H-purin-9-yl)tetrahydrothiophen-3,4-diol]	198.7 to 199.7 °C	25.8 ± 6.3	Ki [7]: 1600 ± 135 nM; percentage of inflammation inhibition [1, 9]: 17%
OC1CS[C@@H](n2cnc3c(NCc4cccc(Cl)c4)nc(Cl)nc32)C1O (stereo in doubt) [Example 2, (2R,3R,4S)-2-(2-Chloro-6-(3-chlorobenzylamino)-9H-purin-9-yl)tetrahydrothiophen-3,4-diol]			mortality [8]: None of the members of the three groups died; weight gain or feed intake versus control group [8]: No difference in weight gain or feed intake
